How the values were obtained:
[1] = tested on: OVCAR8 ovarian cancer cells; assay: MTT cytotoxicity assay in OVCAR8 (cisplatin resistant) ovarian cancer cells; type: cell-based, human; conditions: 48 h incubation
Procedure, shortened: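 Cells in RPMI-1640 with 10% FBS exposed to complexes at 0.01–100 μM for 24 and/or 48 h at 37 °C. Viability by colorimetric MTT; IC50 derived from dose–response curves.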

[2] = tested on: C. glabrata CBS138; assay: MIC determination, C. glabrata; type: cell-based, Candida glabrata; conditions: RPMIG, 24 h, 35 °C
From the text: The bacterial strains Escherichia coli ATCC25922 and Staphylococcus aureus Newman were used in this work and maintained in Lennox Broth (LB) solid medium, composed of 10 g/L tryptone, 5 g/L yeast extract, 5 g/L NaCl and 20 g/L agar. The fungal strains Candida albicans SC5134 and C. glabrata CBS138 were used in this work and maintained in YPD solid medium, composed of 20 g/L glucose, 20 g/L peptone, 10 g/L yeast extract and 15 g/L agar. The strains were isolated from human infections.
The antimicrobial activity of the complexes towards the bacterial and fungal strains was assessed by the determination of the Minimal Inhibitory Concentration (MIC) of each complex towards the indicated microbial strains, based on standard methods, and as previously described. […] Serial 1:2 dilutions of stock solutions were prepared for each complex in Mueller–Hinton (MH) broth (Fluka Analytical) or RPMI-1640 medium (Sigma) supplemented with 20 g/L glucose and buffered with 0.165 M morpholinepropanesulphonic acid (RPMIG) to pH 7.0. Solutions prepared with MH were used for testing bacteria, while those prepared with RPMIG were used for testing fungi. For antibacterial activity assays, the final concentrations ranged from 250 to 0.24 μg/mL (when stock solution final concentration was 10 mg/mL), 125 μg/mL to 0.12 μg/mL (when stock solution final concentration was 5 mg/mL) and 62.5 to 0.06 μg/mL (when stock solution final concentration was 2.5 mg/mL). For antifungal assays, the final concentrations ranged from 125 μg/mL to 0.12 μg/mL (when stock solution final concentration was 10 mg/mL), 62.5 to 0.06 μg/mL (when stock solution final concentration was 5 mg/mL) and 31.25 to 0.03 μg/mL (when stock solution final concentration was 2.5 mg/mL). Then, 100 μL aliquots of adequately diluted bacterial suspensions of S. aureus Newman or E. coli ATCC 25922 were mixed with the MH serially diluted complexes aliquots to obtain 5 × 10^5 CFU/mL. In the case of fungi, cultures were diluted to obtain a final optical density of 0.025, measured at 530 nm (OD530). Bacterial suspensions were prepared from cultures grown for 5 h in MH broth at 37 °C and 250 rev·min^−1 and adequately diluted with fresh MH medium, while fungal suspensions were prepared from overnight cultures grown in YPD broth at 30 °C and 250 rev.min^−1 and diluted in buffered RPMIG. After 22 h of incubation at 37 °C (bacteria) or 24 h at 35 °C (fungi), the wells’ content was resuspended by pipetting and the OD640 (bacteria) or OD530 (fungi) were measured in a SPECTROstar Nano microplate reader (BMG Labtech).
At least three independent experiments were performed in duplicate for each complex under study. […] Positive (no complex) and negative controls (no inoculum) were performed for each experiment. The effect of 5% (V/V) DMSO on microbial growth was also assessed.

[3] = tested on: P. berghei hepatic stage; assay: In vitro activity against the hepatic stage of P. berghei infection (luciferase, Huh7 cells); type: cell-based, Plasmodium berghei; conditions: hepatic stage, Huh7 cells, 46 hpi
Method: The in vitro liver stage activity of gold complexes was assessed against P. berghei-infected Huh7 cells, as previously described. Briefly, Huh7 cells were cultured in RPMI-1640 medium supplemented with 10% (v/v) fetal bovine serum, 1% (v/v) penicillin/streptomycin, 1% (v/v) glutamine, 1% (v/v) non-essential amino acids and 10 mM HEPES. On the day prior to infection, Huh7 cells were seeded in 96-well plates at a density of approximately 3.1 × 10^4 cell/cm^2 and incubated at 37 °C, 5% CO2. Stock solutions of the complexes were initially prepared in DMSO and serially diluted in infection medium, i.e., culture medium supplemented with gentamicin (50 µg/mL) and fungizone (0.8 µg/mL), to obtain the test concentrations. As a control, DMSO was diluted in infection medium to a percentage that equals that of the highest compound concentrations tested. These dilutions were added to the cells in triplicates and incubated for 1 h at 37 °C, 5% CO2, after which 1 × 10^4 luciferase-expressing P. berghei sporozoites were added to each well. Plates were centrifuged at 1800× g for 5 min at room temperature and incubated for the duration of the assay. At 46 h post-infection (hpi), the impact of each compound concentration on cell viability was assessed by the Alamar Blue (Invitrogen, Buckinghamshire, UK) assay, according to the manufacturer’s recommendations. Infection was next assessed by bioluminescence, employing the Firefly Luciferase Assay Kit 2.0 (Biotium, Fremont, CA, USA), according to the manufacturer’s recommendations. For IC50 determination, nonlinear regression analysis was employed to fit the normalized results of the dose–response curves, using GraphPad Prism 8 (GraphPad software, La Jolla, CA, USA).

| Compound | IC50 [1] [µM] | MIC C. glabrata CBS138 [2] [µg/mL] | IC50 [3] [µM] |
| --- | --- | --- | --- |
| CC(=O)OC[C@H]1O[C@@H]([S-])[C@H](OC(C)=O)[C@@H](OC(C)=O)[C@@H]1OC(C)=O.CCP(CC)CC.[Au+] [Auranofin, reference compound] | 1.04 ± 0.41 | 15.2 ± 0.6 |  |
| CCCCn1c2c(sc1=S)[S][Au-]1([S]c3sc(=S)n(CCCC)c3[S]1)[S]2.c1ccc([P+](c2ccccc2)(c2ccccc2)c2ccccc2)cc1 [[P][AuSBu(=S)]] | 1.41 ± 0.56 | >62.5 | 0.47 ± 0.115 |
| CCn1c2c(sc1=S)[S][Au-]1([S]c3sc(=S)n(CC)c3[S]1)[S]2.c1ccc([P+](c2ccccc2)(c2ccccc2)c2ccccc2)cc1 [[P][AuSEt(=S)]] | 0.85 ± 0.19 | >62.5 | 0.474 ± 0.11 |
| CCn1c2c(sc1=[Se])[S][Au-]1([S]c3sc(=[Se])n(CC)c3[S]1)[S]2.c1ccc([P+](c2ccccc2)(c2ccccc2)c2ccccc2)cc1 [[P][AuSEt(=Se)]] | 0.97 ± 0.18 | >62.5 | 0.416 ± 0.123 |
| CC(C)n1c2c(sc1=S)[Se][Au-]1([Se]c3sc(=S)n(C(C)C)c3[Se]1)[Se]2.c1ccc([P+](c2ccccc2)(c2ccccc2)c2ccccc2)cc1 [[P][AuSeiPr(=S)]] | 3.86 ± 0.91 | >31.25 | 0.748 ± 0.0702 |

Source: PMC9266914, “Broad Spectrum Functional Activity of Structurally Related Monoanionic Au(III) Bis(Dithiolene) Complexes” (International Journal of Molecular Sciences, 2022)
